Values after ≈ are worked out from the molar mass of the structure shown.
Columns and labels:
[1] = system: Mycobacterium tuberculosis; assay: Percent reduction of mycobacterial growth using Mycobacterium tuberculosis H37Rv at a concentration of 12.5 ug/mL; type: functional
[2] = system: Mycolicibacterium fortuitum; assay: In vitro anti-mycobacterial activity expressed as minimum inhibitory concentration against Mycobacterium fortuitum ATCC 6841; type: functional
[3] = system: Mycobacterium tuberculosis; assay: In vitro antituberculosis activity against Mycobacterium tuberculosis H37Rv using the BACTEC 12B medium using a micro dilution assay( MABA); type: functional
[4] = Tested in vitro for killing of Mycobacterium tuberculosis Erdman (ATCC 35801) in monolayers of mouse bone marrow macrophages and 90% reduction was reported using level 3 assay; type: functional; design: unit not given here
Mus musculus = species: Mus musculus; assay: Tested in vitro for killing of Mycobacterium tuberculosis Erdman (ATCC 35801) in monolayers of mouse bone marrow macrophages and 99% reduction was reported using level 3 assay; type: functional; design: unit not given here
[5] = system: Mycobacterium tuberculosis; assay: Compound was evaluated for antituberculosis activity against Mycobacterium tuberculosis in level 2 assay; type: functional
[6] = Ratio between EC90 and MIC was reported; type: functional
[7] = system: Mycobacterium tuberculosis; assay: Concentration required for inhibition of growth of Mycobacterium tuberculosis in level 2 assay; type: functional, organism-based
[8] = system: Mycobacterium tuberculosis; assay: Compound was evaluated for antituberculosis activity against Mycobacterium tuberculosis in level 2 assay (performed using BACTEC in which MIC of RMP was found as 0.125 […]); type: functional
[9] = Selectivity index (IC50/MIC) was determined; type: functional

SMILES | inhibition at 12.5 µg/mL [1] | MIC [2] | MIC [3] | also measured
C=CCNC(=S)Nc1ccc(-c2n[nH]c(=S)n2CC=C)cc1 | 71% | 32 µg/mL (≈ 96.5 µM) | > 12.5 µg/mL | 
CNC(=S)Nc1ccc(-c2n[nH]c(=S)n2-c2ccccc2)cc1 | 27% | 64 µg/mL (≈ 187 µM) | > 12.5 µg/mL | 
Cn1c(-c2ccc(NC(=S)Nc3ccccc3)cc2)n[nH]c1=S | 29% | 64 µg/mL (≈ 187 µM) | > 12.5 µg/mL | 
S/C(=N\C1CCCCC1)Nc1ccc(-c2nnc(S)n2C2CCCCC2)cc1 | 12% | > 128 µg/mL | > 12.5 µg/mL | 
CCn1c(S)nnc1-c1ccc(N/C(S)=N/C2CCCCC2)cc1 | 10% | 64 µg/mL (≈ 177 µM) | > 12.5 µg/mL | 
C=CCNC(=S)Nc1ccc(-c2nnc(SCc3ccc(Cl)cc3Cl)n2-c2ccccc2)cc1 | 63% | > 128 µg/mL | > 12.5 µg/mL | 
S=C(Nc1ccccc1)Nc1ccc(-c2n[nH]c(=S)n2-c2ccccc2)cc1 | 13% | > 128 µg/mL | > 12.5 µg/mL | 
C=CCNC(=S)Nc1ccc(-c2n[nH]c(=S)n2CCc2ccccc2)cc1 | 6% | 64 µg/mL (≈ 162 µM) | > 12.5 µg/mL | 
S/C(=N\C1CCCCC1)Nc1ccc(-c2nnc(S)n2-c2ccccc2)cc1 | 13% | 64 µg/mL (≈ 156 µM) | > 12.5 µg/mL | 
C=CCNC(=S)Nc1ccc(-c2n[nH]c(=S)n2CC)cc1 | 89% | 64 µg/mL (≈ 200 µM) | > 12.5 µg/mL | 
C=CCNC(=S)Nc1ccc(-c2n[nH]c(=S)n2C)cc1 | 94% | 64 µg/mL (≈ 210 µM) | 12.5 µg/mL (≈ 40.9 µM) | EC90 [4]: 0.698; EC99 (Mus musculus): >100; MIC [5]: > 12.5 µg/mL; Ratio [6]: < 0.0558
CO[C@H]1/C=C/O[C@@]2(C)Oc3c(C)c(O)c4c(O)c(c(/C=N/N5CCN(C)CC5)c(O)c4c3C2=O)NC(=O)/C(C)=C\C=C\[C@H](C)[C@H](O)[C@@H](C)[C@@H](O)[C@@H](C)[C@H](OC(C)=O)[C@@H]1C [RIFAMPIN] |  | 0.25 µg/mL (≈ 0.304 µM) |  | EC90 [4]: 0.007; EC99 (Mus musculus): 0.451
C=CCNC(=S)Nc1ccc(-c2nnc(SCc3ccc(Cl)cc3Cl)n2C)cc1 | 94% | > 128 µg/mL | < 12.5 µg/mL | IC50 [7]: > 10 µg/mL; MIC [8]: 6.25 µg/mL; Ratio [9]: > 1.6
C=CCNC(=S)Nc1ccc(-c2n[nH]c(=S)n2-c2ccccc2)cc1 | 12% | 64 µg/mL (≈ 174 µM) | > 12.5 µg/mL | 
C=CCn1c(-c2ccc(NC(=S)Nc3ccccc3)cc2)n[nH]c1=S | 0% | 32 µg/mL (≈ 87.1 µM) | > 12.5 µg/mL | 
CNC(=S)Nc1ccc(-c2n[nH]c(=S)n2C)cc1 | 93% | 64 µg/mL (≈ 229 µM) | < 12.5 µg/mL | EC90 [4]: 0.371; EC99 (Mus musculus): >100; MIC [5]: > 12.5 µg/mL; EC90/MIC [6]: < 0.0297
CNC(=S)Nc1ccc(-c2nnc(SCc3ccccc3)n2C)cc1 | 85% | > 128 µg/mL | > 12.5 µg/mL | 
NC[C@H]1O[C@H](O[C@H]2[C@H](O)[C@@H](O[C@H]3O[C@H](CO)[C@@H](O)[C@H](N)[C@H]3O)[C@H](N)C[C@@H]2N)[C@H](N)C[C@@H]1O [TOBRAMYCIN] |  | 32 µg/mL (≈ 68.4 µM) |  | 
Cn1c(S)nnc1-c1ccc(N/C(S)=N/C2CCCCC2)cc1 | 10% | 32 µg/mL (≈ 92.1 µM) | > 12.5 µg/mL | 
CCNC(=S)Nc1ccc(-c2n[nH]c(=S)n2-c2ccccc2)cc1 | 17% | 64 µg/mL (≈ 180 µM) | > 12.5 µg/mL | 
C=CC/N=C(\S)Nc1ccc(-c2nnc(S)n2C2CCCCC2)cc1 | 35% | 32 µg/mL (≈ 85.7 µM) | > 12.5 µg/mL | 
CCNC(=S)Nc1ccc(-c2n[nH]c(=S)n2C)cc1 | 90% | 64 µg/mL (≈ 218 µM) | < 12.5 µg/mL | EC90 [4]: 0.303; EC99 (Mus musculus): 48.65; MIC [5]: > 12.5 µg/mL; Ratio [6]: < 0.0242
C=CCn1c(-c2ccc(NC(=S)NC)cc2)n[nH]c1=S | 0% | > 128 µg/mL | > 12.5 µg/mL | 
S=C(Nc1ccc(Cl)cc1)Nc1ccc(-c2n[nH]c(=S)n2-c2ccccc2)cc1 | 11% | 64 µg/mL (≈ 146 µM) | > 12.5 µg/mL | 
